One block for each compound: values may come before it.
Assays:
[1] = target: T1, human pancreatic lipase (hPL) (Homo sapiens, UniProt P16233); assay: hPL inhibition assay (hPL-catalyzed DDAO-ol hydrolysis, fluorescence); assay type: biochemical; conditions: for IC50: hPL, DDAO-ol 20 μM as substrate, 3 min pre-incubation at 37°C; for hPL inhibition activity (qualitative): tested at 1, 10 and 100 μM; for hPL inhibition at high dose: inhibitor at 100 μM; for remaining activity at 10 µM: inhibitor at 10 μM, read-out: residual activities of hPL
T1 construct: made in house
T1 sequence (P16233 17-465): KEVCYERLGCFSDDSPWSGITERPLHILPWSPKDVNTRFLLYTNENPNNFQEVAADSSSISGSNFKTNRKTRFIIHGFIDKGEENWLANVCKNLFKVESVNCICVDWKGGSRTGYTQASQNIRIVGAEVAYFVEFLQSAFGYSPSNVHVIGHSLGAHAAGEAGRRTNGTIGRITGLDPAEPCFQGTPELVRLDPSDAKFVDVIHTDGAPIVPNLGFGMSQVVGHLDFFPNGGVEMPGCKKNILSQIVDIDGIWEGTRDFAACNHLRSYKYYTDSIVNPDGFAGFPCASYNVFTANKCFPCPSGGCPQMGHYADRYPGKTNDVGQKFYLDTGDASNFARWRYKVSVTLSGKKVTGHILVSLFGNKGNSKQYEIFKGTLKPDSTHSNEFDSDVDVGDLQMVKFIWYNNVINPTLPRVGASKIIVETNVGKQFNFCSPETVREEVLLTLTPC

[2] = Estimated local exposure in the gastrointestinal tract (daily dose divided by volume of the human gastrointestinal system); conditions: oral AGE at daily dosage recommended by Chinese Materia Medica
Text: A. grossedentata is known as the “king of flavonoids”, while the content of total flavonoids in AGE is up to 45% ([57]). Herein, a total of nine flavonoids in AGE were identified and characterized by LC–MS/MS-based chemical profiling.

[3] = oral administration; ref [60], [61]; cited from earlier work
[4] = target: T1, human pancreatic lipase (hPL); assay: Inhibition kinetic analyses against hPL-catalyzed DDAO-ol hydrolysis (Lineweaver-Burk); assay type: biochemical
[5] = target: T1, human pancreatic lipase (hPL); assay: Time-dependent inhibition assay of hPL (different pre-incubation times); assay type: biochemical; conditions: long pre-incubation time vs. standard
Method: After pre-incubating at 37°C for 3 min, the substrate of DDAO-ol (20 μM, final concentration) was added to the initial reaction. […] The standard curve was plotted using DDAO as product standard (Supplementary Figure S6). The control incubations without inhibitors were also performed.

Compound: Myricitrin
hPL inhibition at high dose [1]: did not inhibit

Compound: O=c1c(O)c(-c2ccc(O)c(O)c2)oc2cc(O)cc(O)c12 [Quercetin]
remaining activity at 10 µM [1]: < 15%
Inhibition mode ([4]; Lineweaver-Burk plots): Non-competitive
time dependence of hPL inhibition [5]: not time-dependent

Compound: O=c1c(O[C@@H]2OC[C@@H](O)[C@H](O)[C@H]2O)c(-c2ccc(O)c(O)c2)oc2cc(O)cc(O)c12 [Reynoutirn, Reynoutrin]
IC50 [1]: > 100 µM
hPL inhibition at high dose [1]: did not inhibit

Compound: O=c1c(O)c(-c2cc(O)c(O)c(O)c2)oc2cc(O)cc(O)c12 [Myricetin]
IC50 [1]: 1.34 ± 0.18 µM
remaining activity at 10 µM [1]: < 15%
Ki ([4]; apparent Ki): 2.04 ± 0.75 µM
time dependence of hPL inhibition [5]: not time-dependent
local exposure in the gastrointestinal tract [2]: 19.37 µM

Now from value to compound, other results behind:

IC50 [1]: 27.8 ± 2.92 µM
hPL inhibition activity (qualitative) [1]: moderate
local exposure in the gastrointestinal tract [2]: 11.85 µM
Compound: O=C1c2c(O)cc(O)cc2OC(c2ccc(O)c(O)c2)C1O (stereo not shown) [Taxifolin]

IC50 [1]: 3.46 ± 0.07 µM
Compound: Sanggenone C [SanggenoneC, reference compound]

IC50 [1]: 14.4 ± 1.21 µM
hPL inhibition activity (qualitative) [1]: moderate
local exposure in the gastrointestinal tract [2]: 106.90 µM
Compound: O=C1c2c(O)cc(O)cc2O[C@H](c2cc(O)c(O)c(O)c2)[C@@H]1O [Iso-dihydromyricetin]

IC50 [1]: 34.3 ± 4.63 µM
local exposure in the gastrointestinal tract [2]: 206.08 µM
Compound: O=C1c2c(O)cc(O)cc2O[C@H](c2cc(O)c(O)c(O)c2)[C@H]1O [Dihydromyricetin]
local exposure in stomach and small intestine vs. other deep organs (heart, liver, spleen, lung, kidney, brain) [3]: much higher
oral bioavailability [3]: very poor
